Legend:
Assay in all cases: MIC of amoxycillin in combination with the compound (synergy)
Assay type in all cases: cell-based
Settings in all cases: amoxycillin alone
Staph. aureus Russell = tested on: Staph. aureus Russell
Kleb. aerogenes E70 = tested on: Kleb. aerogenes E70
Escherichia coli JT39 = tested on: Escherichia coli JT39

- MIC µg/ml amoxycillin (Staph. aureus Russell): 500 µg/mL
- MIC µg/ml amoxycillin (Kleb. aerogenes E70): 1000 µg/mL
- MIC µg/ml amoxycillin (Escherichia coli JT39): 2000 µg/mL
SMILES: CC1(C)S[C@@H]2[C@H](NC(=O)[C@H](N)c3ccc(O)cc3)C(=O)N2[C@H]1C(=O)O [Amoxycillin]

From patent publication EP0068617A1, “Derivatives of clavulanic acid, a process for their preparation and their use” (BEECHAM GROUP PLC, priority 1981, dated 1983)
